Data set [1] has as its system T1, proteasome in HEK293T cells.
T1 construct: HEK293T cells were seeded in black 96-well plates; endogenous in cells; host or cells: HEK293T
As to the kind of experiment: 20S activity in cellulo (TAS3 assay). It counts as cell-based, human. The settings on record: 10 µM TAS3 in KRBH buffer, 30 min preincubation with compound, 37 °C, linear regression of last 60 min, triplicate, Btz 10 µM.
Protocol: HEK293T cells were seeded in black 96-well plates at 7 × 10^3 cells/well and incubated in DMEM supplemented with 10% FBS and penicillin/streptomycin (100 units/mL/100 µg/mL) at 37 °C with 5% CO2. […] After this time, the cells were treated with the tested peptides/peptidomimetics (1–50 µM in medium). Each sample was prepared in triplicate. The plates were incubated for an additional 30 min. Subsequently, the medium was removed, and 100 µL of 10 µM TAS3 in Krebs-Ringer Bicarbonate (KRBH) buffer, containing the tested modulator, was added to the wells. The fluorescence intensity was monitored every 2 min over a 90 min period at 37 °C using a Tecan Infinite M200 Pro plate reader (Tecan Trading AG, Männedorf, Switzerland) with the excitation and emission wavelengths set at 485 nm and 535 nm, respectively. A linear regression analysis was performed for the last 60 min of the measurement. Any increase or decrease in activity of the 20S was compared to that of the control (cells incubated with TAS3 probe in KRBH buffer) and calculated based on the change in fluorescence units per time [40]. To determine statistical significance, ordinary one-way ANOVA was used.

In a further data set the test system is HEK293T cells. It counts as in vitro ADME, human. The source says: One of the obstacles in the development of peptide drugs is their low cell permeability. To evaluate if the peptide-based proteasome activators can cross the cell membrane, we synthesized an analog of peptide 7; labeled the ε-amine group of the N-terminal lysine residue with a fluorescent dye, 5/6-carboxytetramethylrhodamine (TAMRA); and used confocal microscopy to detect its entry into cells. […] Therefore, 7 was combined with the HIV-1 TAT protein-derived, membrane-penetrating peptide sequence GRKKRRQRRR (TAT 48–57), separated by the 20S proteasome recognition sequence, LLVY.
TAMRA fluorescent tags were attached to the N-terminal […] group of the lysine residue of compound 7 and the ε-amino group of the corresponding lysine residue in compound TAT-7 before the final deprotection and cleavage of the compounds from the solid support. To achieve the selective attachment of the label to the proper ε-amino group, the Fmoc-Lys(Mtt)-OH was used in this position during peptide elongation. […]
Human embryonic kidney cells (HEK293T, a generous gift of Prof. Grzegorz Węgrzyn, Faculty of Biology, University of Gdańsk, Gdańsk, Poland) were maintained in Dulbecco’s Modified Eagle Medium (DMEM) supplemented with 10% Fetal Bovine Serum (FBS) and penicillin/streptomycin (100 units/mL/100 µg/mL), at 37 °C with 5% CO2. […] The images were merged, and the colocalization of the dye emission was analyzed.

No end group written: not given here.

Regarding `CC(C)C[C@H](NC(=O)[C@H](Cc1ccccc1)NC(=O)c1cnccn1)B(O)O` [Btz, bortezomib], the “ΔRFU/min (change in fluorescence units per minute, TAS3 probe)” value in data set [1] was determined as 3.7 RFU/min.

Take KKKANLQYYA [compound 7]: the “cell permeability / cellular internalization (result in words)” value with HEK293T cells is “only slightly cell permeable”.

Values taken from article PMC11082943, “Rpt5-Derived Analogs Stimulate Human Proteasome Activity in Cells and Degrade Proteins Forming Toxic Aggregates in Age-Related Diseases” (International Journal of Molecular Sciences, 2024).
